Laboratory results: patent US20250339569A1, “CARBONIC ANHYDRASE IX LIGANDS” (priority 2021, published 2025)
Read-outs that look alike come from different tables or passages of the source. Starred links: 1 amine or outer side, 2 acyl side, 3 side chain; linkers in the order of their positions; H or OH if unused. Positions of bridges follow the written chain, without caps; N, C: chain ends. Non-standard residues stand in square brackets, D forms with d. Residues, ends and D or L forms follow the SMILES beside them. *: point of attachment. Phe(3-NHCO(CH2)3SO2NH2) = N[C@@H](Cc1cccc(NC(=O)CCCS(N)(=O)=O)c1)C(=O)O; X4 = CS(=O)(=O)CC(=O)Nc1cccc(C[C@H](N[*:1])C(=O)[*:2])c1; DOTA = O=C(O)CN1CCN(CC(=O)O)CCN(CC(=O)*)CCN(CC(=O)O)CC1; X5 = O=C(O)CCCC(=O)Nc1cccc(C[C@H](N[*:1])C(=O)[*:2])c1; X6 = O=C(O)CCC(=O)Nc1cccc(C[C@H](N[*:1])C(=O)[*:2])c1; mXylylene = c1cc(C[*:1])cc(C[*:2])c1; X2 = O=C(CN1CCC(N[*:1])CC1)[*:2]; Dap = NC[C@H](N)C(=O)O

Legend:
[1] = molecular target: T1, CAIX-expressing human HT-29 colorectal cancer cells (Homo sapiens, UniProt Q16790); assay: FACS binding assay (IC50 determination, competition with tracer 3BP-2776 or 3BP-4149); settings: FACS binding assay, HT-29 cells, 4° C., 1 hour, read-out: pIC50 category (activity) (converted)
T1 construct: CAIX-expressing human HT-29 colorectal cancer cells; host or cells: HT-29 human colorectal cancer cells
In short: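 HT-29 cells in FACS buffer (PBS, 1% FCS) at 500.000 cells/ml were exposed to compounds competing with a labelled tracer, with biotinylated compounds detected by 1 μg/mL APC-streptavidin for 30 min on ice. APC/Cy5 median fluorescence was read by flow cytometry and IC50 derived by 4PL fit.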

[2] = molecular target: T2, human carbonic anhydrase IX (hCAIX-Fc) (Homo sapiens, UniProt Q16790); assay: Surface plasmon resonance assay with hCAIX-Fc; assay type: binding; settings: 25° C.; for t1/2 category (activity): SPR dissociation half-life, hCAIX-Fc; for Kd: SPR, hCAIX-Fc captured, read-out: pKD category (activity) (converted)
T2 construct: purchased SinoBliological (Sino Biological) 10107-H02H

[3] = mouse, plasma, 24 h
[4] = molecular target: T3, CAIV (hCAIV-bio) (Homo sapiens, UniProt P22748); assay: SPR selectivity assay with biotinylated CAIV; assay type: binding; settings: SPR, biotinylated CAIV; read-out: pKD category (affinity) CAIV (converted)
T3 construct: purchased SinoBliological (Sino Biological) 10472-1H081H
T3 sequence (P22748 19-284): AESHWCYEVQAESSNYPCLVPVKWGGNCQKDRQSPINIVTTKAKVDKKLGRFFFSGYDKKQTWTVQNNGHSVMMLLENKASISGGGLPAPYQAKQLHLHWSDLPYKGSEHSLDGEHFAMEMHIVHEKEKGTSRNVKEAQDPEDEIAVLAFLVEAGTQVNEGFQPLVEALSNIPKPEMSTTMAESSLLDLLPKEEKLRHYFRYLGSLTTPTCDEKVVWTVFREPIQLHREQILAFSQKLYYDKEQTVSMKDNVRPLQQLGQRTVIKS
Description: (§1) In order to test selectivity of CAIX-binding peptides toward CAIV (SinoBliological, Cat #10472-1H081H), CAXII (SinoBliological, Cat #10617-H08H or CAXIV (SinoBliological, Cat #10458-H08H), SPR assays were performed analog to the assay described above but with a different target capture procedure. For immobilization, the carbonic anhydrases were biotinylated and capture on the SPR chip using the Biotin CAPture Kit (cytiva) according to the manufacturer instructions using HBSTE, 0.1% as Running Buffer.
(§2) Table 13 describes the protocol steps for biotinylated target capturing and assessment of the binding kinetics.

[5] = molecular target: T4, CAXIV (hCAXIV-bio) (Homo sapiens, UniProt Q9ULX7); assay: SPR selectivity assay with biotinylated CAXIV; assay type: binding; settings: SPR, biotinylated CAXIV; read-out: pKD category (affinity) CAXIV (converted)
T4 construct: purchased SinoBliological (Sino Biological) 10458-H08H
T4 sequence (Q9ULX7 16-337): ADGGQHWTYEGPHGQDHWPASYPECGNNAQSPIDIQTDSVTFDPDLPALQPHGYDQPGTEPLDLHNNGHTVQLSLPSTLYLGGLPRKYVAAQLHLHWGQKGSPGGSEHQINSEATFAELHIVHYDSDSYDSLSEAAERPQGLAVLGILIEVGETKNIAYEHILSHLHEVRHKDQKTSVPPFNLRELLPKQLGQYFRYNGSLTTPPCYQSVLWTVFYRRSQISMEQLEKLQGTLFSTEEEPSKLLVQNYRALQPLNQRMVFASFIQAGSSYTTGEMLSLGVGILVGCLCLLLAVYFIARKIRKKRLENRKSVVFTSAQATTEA
Description: as §1, §2

[6] = molecular target: T5, CAXII (hCAXII-bio) (Homo sapiens, UniProt O43570); assay: SPR selectivity assay with biotinylated CAXII; assay type: binding; settings: SPR, biotinylated CAXII; read-out: pKD category (affinity) CAXII (converted)
T5 construct: purchased SinoBliological (Sino Biological) 10617-H08H
T5 sequence (O43570 25-354): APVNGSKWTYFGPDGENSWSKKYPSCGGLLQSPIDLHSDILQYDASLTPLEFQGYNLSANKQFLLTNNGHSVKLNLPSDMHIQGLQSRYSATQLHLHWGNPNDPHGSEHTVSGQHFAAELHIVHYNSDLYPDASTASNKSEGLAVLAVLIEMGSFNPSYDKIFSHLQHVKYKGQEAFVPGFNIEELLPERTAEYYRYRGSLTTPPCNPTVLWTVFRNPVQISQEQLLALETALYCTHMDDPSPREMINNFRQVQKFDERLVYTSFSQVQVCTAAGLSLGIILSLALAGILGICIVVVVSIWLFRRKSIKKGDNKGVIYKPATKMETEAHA
Description: as §1, §2

[7] = Plasma stability assay, mouse plasma; settings: mouse plasma, 37°C, 24 h
[8] = competition with tracer 3BP-4149 (3 nM, Cy5-labeled)
[9] = competition with tracer 3BP-2776 (10 nM, biotin-labeled)

IC50 [1, 8] | t1/2 category (activity) [2] | Kd [2] | % intact compound remaining (incubation time) [3] | IC50 [1, 9] | Kd [4] | Kd [5] | Kd [6] | % intact compound remaining (incubation time) [7] | Compound
< 10 nM | A (t1/2>15.0 minutes) | < 10 nM | >95% | – | – | – | – | – | CC(C)C[C@@H]1NC(=O)[C@H](Cc2cccc(NC(=O)CCCS(N)(=O)=O)c2)NC(=O)[C@H](CC(=O)O)NC(=O)[C@H]2CCCN2C(=O)[C@H](CCC(=O)O)NC(=O)[C@@H](NC(=O)[C@H](Cc2ccc(O)cc2)NC(=O)[C@@H](NC(=O)CN2CCC(NC(=O)CN3CCN(CC(=O)O)CCN(CC(=O)O)CCN(CC(=O)O)CC3)CC2)C(C)C)CSCc2cccc(c2)CSC[C@@H](C(N)=O)NC(=O)[C@H](CO)NC(=O)[C@H](Cc2c[nH]c3ccccc23)NC(=O)[C@H]([C@@H](C)O)NC1=O [3BP-4369] ({DOTA}-[X2]VYCE[dP]D[Phe(3-NHCO(CH2)3SO2NH2)]LTWSC-NH2; linker 4-13 via mXylylene)
< 10 nM | A (t1/2>15.0 minutes) | < 10 nM | >95% | – | – | – | – | – | CC(C)C[C@@H]1NC(=O)[C@H](Cc2cccc(NC(=O)CCCC(=O)O)c2)NC(=O)[C@H](CC(=O)O)NC(=O)[C@H]2CCCN2C(=O)[C@H](CCC(=O)O)NC(=O)[C@@H](NC(=O)[C@H](Cc2ccc(O)cc2)NC(=O)[C@@H](NC(=O)CN2CCC(NC(=O)CN3CCN(CC(=O)O)CCN(CC(=O)O)CCN(CC(=O)O)CC3)CC2)C(C)C)CSCc2cccc(c2)CSC[C@@H](C(N)=O)NC(=O)[C@H](CO)NC(=O)[C@H](Cc2c[nH]c3ccccc23)NC(=O)[C@H]([C@@H](C)O)NC1=O [3BP-4367] ({DOTA}-[X2]VYCE[dP]D[X5]LTWSC-NH2; linker 4-13 via mXylylene)
– | A (t1/2>15.0 minutes) | < 10 nM | >95% | < 10 nM | – | – | – | – | CC(C)C[C@@H]1NC(=O)[C@H](Cc2cccc(NC(=O)CCC(=O)O)c2)NC(=O)[C@H](CC(=O)O)NC(=O)[C@H]2CCCN2C(=O)[C@H](CCC(=O)O)NC(=O)[C@@H](NC(=O)[C@H](Cc2ccc(O)cc2)NC(=O)[C@@H](NC(=O)CN2CCC(NC(=O)CN3CCN(CC(=O)O)CCN(CC(=O)O)CCN(CC(=O)O)CC3)CC2)C(C)C)CSCc2cccc(c2)CSC[C@@H](C(N)=O)NC(=O)[C@H](CO)NC(=O)[C@H](Cc2c[nH]c3ccccc23)NC(=O)[C@H]([C@@H](C)O)NC1=O [3BP-4237, DOTA-APAc-Val-Tyr-[Cys(3MeBn)-Glu-pro-Asp-Af3(HO-Succinyl)-Leu-Thr-Trp-Ser-Cys]-NH2] ({DOTA}-[X2]VYCE[dP]D[X6]LTWSC-NH2; linker 4-13 via mXylylene)
– | A (t1/2>15.0 minutes) | < 10 nM | – | < 10 nM | > 1000 nM | > 1000 nM | > 1000 nM | >95% | CC(C)C[C@@H]1NC(=O)[C@H](Cc2c[nH]c3ccccc23)NC(=O)[C@H](CC(=O)O)NC(=O)[C@H]2CCCN2C(=O)[C@H](CCC(=O)O)NC(=O)[C@@H]2CSCc3cccc(c3)CSC[C@@H](C(N)=O)NC(=O)[C@H](CNC(=O)C[C@H](NC(=O)[C@@H](NC(=O)CN3CCC(NC(=O)CN4CCN(CC(=O)O)CCN(CC(=O)O)CCN(CC(=O)O)CC4)CC3)C(C)C)C(=O)N2)NC(=O)[C@H](Cc2c[nH]c3ccccc23)NC(=O)[C@H]([C@@H](C)O)NC1=O [3BP-4174, DOTA-APAc-Val-{Asp-[Cys(3MeBn)-Glu-pro-Asp-Trp-Leu-Thr-Trp-Dap}-Cys]-NH2] ({DOTA}-[X2]VDCE[dP]DWLTW[Dap]C-NH2; lactam 3-12; linker 4-13 via mXylylene)
– | B (t1/2 between 5.1 and 15.0 minutes) | < 10 nM | >95% | < 10 nM | – | – | – | – | CC(C)C[C@@H]1NC(=O)[C@H](Cc2cccc(NC(=O)CS(C)(=O)=O)c2)NC(=O)[C@H](CC(=O)O)NC(=O)[C@H]2CCCN2C(=O)[C@H](CCC(=O)O)NC(=O)[C@@H](NC(=O)[C@H](Cc2ccc(O)cc2)NC(=O)[C@@H](NC(=O)CN2CCC(NC(=O)CN3CCN(CC(=O)O)CCN(CC(=O)O)CCN(CC(=O)O)CC3)CC2)C(C)C)CSCc2cccc(c2)CSC[C@@H](C(N)=O)NC(=O)[C@H](CO)NC(=O)[C@H](Cc2c[nH]c3ccccc23)NC(=O)[C@H]([C@@H](C)O)NC1=O [3BP-4242] ({DOTA}-[X2]VYCE[dP]D[X4]LTWSC-NH2; linker 4-13 via mXylylene)
